Measured values as given in PubChem BioAssay (NCI).
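Test compounds were applied to cells in 96-well plates for 48 hours at 5 doses. At the GI50, growth is halved. The concentration for full growth arrest is given as TGI.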

Legend:
Experiment in all cases: NCI anticancer screen, dose series, 48 h
EKVX NSCLC = system: EKVX NSCLC
SR leukemia = system: SR leukemia
OVCAR-5 ovarian = system: OVCAR-5 ovarian
KM12 colon = system: KM12 colon
A549 NSCLC = system: A549 NSCLC
HL-60(TB) leukemia = system: HL-60(TB) leukemia
SN12C renal = system: SN12C renal
U251 CNS = system: U251 CNS
RXF 393 renal = system: RXF 393 renal
TK-10 renal = system: TK-10 renal
PC-3 prostate = system: PC-3 prostate
SK-MEL-28 melanoma = system: SK-MEL-28 melanoma
LOX IMVI melanoma = system: LOX IMVI melanoma
MALME-3M melanoma = system: MALME-3M melanoma
SW-620 colon = system: SW-620 colon
DU-145 prostate = system: DU-145 prostate
SK-OV-3 ovarian = system: SK-OV-3 ovarian
786-0 renal = system: 786-0 renal
OVCAR-8 ovarian = system: OVCAR-8 ovarian
ACHN renal = system: ACHN renal
HCT-15 colon = system: HCT-15 colon
SF-268 CNS = system: SF-268 CNS
MOLT-4 leukemia = system: MOLT-4 leukemia
NCI-H23 lung = system: NCI-H23 lung
NCI/ADR-RES ovarian = system: NCI/ADR-RES ovarian
SF-295 CNS = system: SF-295 CNS
NCI-H226 lung = system: NCI-H226 lung
NCI-H522 lung = system: NCI-H522 lung
SK-MEL-2 melanoma = system: SK-MEL-2 melanoma
HOP-92 NSCLC = system: HOP-92 NSCLC
SNB-75 CNS = system: SNB-75 CNS
MCF7 breast = system: MCF7 breast
T-47D breast = system: T-47D breast
BT-549 breast = system: BT-549 breast
MDA-MB-231 breast = system: MDA-MB-231 breast
MDA-MB-435 = system: MDA-MB-435
SK-MEL-5 melanoma = system: SK-MEL-5 melanoma
IGROV1 ovarian = system: IGROV1 ovarian
SNB-19 CNS = system: SNB-19 CNS
UO-31 renal = system: UO-31 renal
HCT-116 colon = system: HCT-116 colon
A498 renal = system: A498 renal
HOP-62 NSCLC = system: HOP-62 NSCLC
CAKI-1 renal = system: CAKI-1 renal
OVCAR-3 ovarian = system: OVCAR-3 ovarian
M14 melanoma = system: M14 melanoma
HT29 colon = system: HT29 colon
UACC-62 melanoma = system: UACC-62 melanoma
OVCAR-4 ovarian = system: OVCAR-4 ovarian
HCC-2998 colon = system: HCC-2998 colon
UACC-257 melanoma = system: UACC-257 melanoma
K-562 leukemia = system: K-562 leukemia
HS 578T breast = system: HS 578T breast
RPMI-8226 leukemia = system: RPMI-8226 leukemia
SF-539 CNS = system: SF-539 CNS
NCI-H460 lung = system: NCI-H460 lung
COLO 205 colon = system: COLO 205 colon
CCRF-CEM leukemia = system: CCRF-CEM leukemia

## CCCCCCSSC(=S)N(CC)CC
EKVX NSCLC
  GI50: 37.1 µM
  TGI: > 100 µM
SR leukemia
  GI50: 0.0589 µM
  TGI: 29.1 µM
OVCAR-5 ovarian
  GI50: 20.5 µM
  TGI: 35.9 µM
KM12 colon
  GI50: 15.2 µM
  TGI: 32.1 µM
A549 NSCLC
  GI50: 32.4 µM
  TGI: 98.6 µM
HL-60(TB) leukemia
  GI50: 18.1 µM
  TGI: 52.3 µM
SN12C renal
  GI50: 18.3 µM
  TGI: 40.3 µM
U251 CNS
  GI50: 14.2 µM
  TGI: 30.6 µM
RXF 393 renal
  GI50: 17.1 µM
  TGI: 32.9 µM
TK-10 renal
  GI50: 25.8 µM
  TGI: 56.7 µM
PC-3 prostate
  GI50: 20.5 µM
  TGI: 57.6 µM
SK-MEL-28 melanoma
  GI50: 25 µM
  TGI: 61.4 µM
LOX IMVI melanoma
  GI50: 15.3 µM
  TGI: 33.1 µM
MALME-3M melanoma
  GI50: 23 µM
  TGI: 60.4 µM
SW-620 colon
  GI50: 18.5 µM
  TGI: 39.6 µM
DU-145 prostate
  GI50: 28.7 µM
  TGI: 92.9 µM
SK-OV-3 ovarian
  GI50: 28.6 µM
  TGI: 71.1 µM
786-0 renal
  GI50: 20.4 µM
  TGI: 39.4 µM
OVCAR-8 ovarian
  GI50: 20 µM
  TGI: 46.6 µM
ACHN renal
  GI50: 20.1 µM
  TGI: 41.7 µM
HCT-15 colon
  GI50: 28.4 µM
  TGI: > 100 µM
SF-268 CNS
  GI50: 33.5 µM
  TGI: > 100 µM
MOLT-4 leukemia
  GI50: 17.7 µM
  TGI: 44.5 µM
NCI-H23 lung
  GI50: 27.8 µM
  TGI: 92.8 µM
NCI/ADR-RES ovarian
  GI50: 28.1 µM
  TGI: 96.5 µM
SF-295 CNS
  GI50: 17.4 µM
  TGI: 51.1 µM
NCI-H226 lung
  GI50: 35.4 µM
  TGI: > 100 µM
NCI-H522 lung
  GI50: 1.66 µM
  TGI: 21.3 µM
SK-MEL-2 melanoma
  GI50: 25 µM
  TGI: 58.7 µM
HOP-92 NSCLC
  GI50: 32.4 µM
  TGI: > 100 µM
SNB-75 CNS
  GI50: 16.8 µM
  TGI: 47.6 µM
MCF7 breast
  GI50: 13.9 µM
  TGI: 30.8 µM
T-47D breast
  GI50: 25.4 µM
  TGI: > 100 µM
BT-549 breast
  GI50: 17.1 µM
  TGI: 45.2 µM
MDA-MB-231 breast
  GI50: 17.5 µM
  TGI: 39.2 µM
MDA-MB-435
  GI50: 22.1 µM
  TGI: 57.9 µM
SK-MEL-5 melanoma
  GI50: 14.6 µM
  TGI: 31.6 µM
IGROV1 ovarian
  GI50: 31.5 µM
  TGI: 86.7 µM
SNB-19 CNS
  GI50: 40.3 µM
  TGI: > 100 µM
UO-31 renal
  GI50: 18.1 µM
  TGI: 34.9 µM
HCT-116 colon
  GI50: 14.4 µM
  TGI: 28.5 µM
A498 renal
  GI50: 70 µM
  TGI: > 100 µM
HOP-62 NSCLC
  GI50: 34.6 µM
  TGI: > 100 µM
CAKI-1 renal
  GI50: 16.3 µM
  TGI: 36.1 µM
OVCAR-3 ovarian
  GI50: 17.8 µM
  TGI: 34.3 µM
M14 melanoma
  GI50: 19.2 µM
  TGI: 47.6 µM
HT29 colon
  GI50: 20.5 µM
  TGI: 38.8 µM
UACC-62 melanoma
  GI50: 17.2 µM
  TGI: 36.9 µM
OVCAR-4 ovarian
  GI50: 15.1 µM
  TGI: 28.8 µM
HCC-2998 colon
  GI50: 29.7 µM
  TGI: 91.5 µM
UACC-257 melanoma
  GI50: 48.3 µM
  TGI: > 100 µM
K-562 leukemia
  GI50: 14.7 µM
  TGI: 39.5 µM
HS 578T breast
  GI50: 28.3 µM
  TGI: > 100 µM
RPMI-8226 leukemia
  GI50: 18.8 µM
  TGI: > 100 µM
SF-539 CNS
  GI50: 17.5 µM
  TGI: 43.3 µM

## CCCOC(=O)c1c(C)n(C)c2scc[n+]12
EKVX NSCLC
  GI50: 13.7 µM
  TGI: > 100 µM
SR leukemia
  GI50: 64 µM
  TGI: > 100 µM
OVCAR-5 ovarian
  GI50: > 100 µM
  TGI: > 100 µM
KM12 colon
  GI50: 44.5 µM
  TGI: > 100 µM
HL-60(TB) leukemia
  GI50: > 100 µM
  TGI: > 100 µM
SN12C renal
  GI50: 59.5 µM
  TGI: > 100 µM
U251 CNS
  GI50: 34 µM
  TGI: > 100 µM
TK-10 renal
  GI50: > 100 µM
  TGI: > 100 µM
PC-3 prostate
  GI50: 54.1 µM
  TGI: > 100 µM
SK-MEL-28 melanoma
  GI50: > 100 µM
  TGI: > 100 µM
LOX IMVI melanoma
  GI50: 89.7 µM
  TGI: > 100 µM
MALME-3M melanoma
  GI50: > 100 µM
  TGI: > 100 µM
SW-620 colon
  GI50: 67.4 µM
  TGI: > 100 µM
DU-145 prostate
  GI50: 86.1 µM
  TGI: > 100 µM
NCI-H460 lung
  GI50: 52.8 µM
  TGI: > 100 µM
SK-OV-3 ovarian
  GI50: 49.6 µM
  TGI: > 100 µM
786-0 renal
  GI50: 80.1 µM
  TGI: > 100 µM
OVCAR-8 ovarian
  GI50: 49.2 µM
  TGI: > 100 µM
ACHN renal
  GI50: > 100 µM
  TGI: > 100 µM
HCT-15 colon
  GI50: > 100 µM
  TGI: > 100 µM
SF-268 CNS
  GI50: 48 µM
  TGI: > 100 µM
MOLT-4 leukemia
  GI50: 53.9 µM
  TGI: > 100 µM
NCI-H23 lung
  GI50: 34.2 µM
  TGI: > 100 µM
NCI/ADR-RES ovarian
  GI50: > 100 µM
  TGI: > 100 µM
SF-295 CNS
  GI50: 41.7 µM
  TGI: > 100 µM
NCI-H226 lung
  GI50: 62.3 µM
  TGI: > 100 µM
NCI-H522 lung
  GI50: 31.4 µM
  TGI: > 100 µM
SK-MEL-2 melanoma
  GI50: 64.1 µM
  TGI: > 100 µM
HOP-92 NSCLC
  GI50: 15.1 µM
  TGI: > 100 µM
SNB-75 CNS
  GI50: 50.5 µM
  TGI: > 100 µM
COLO 205 colon
  GI50: 17.8 µM
  TGI: 46.8 µM
MCF7 breast
  GI50: 31.2 µM
  TGI: > 100 µM
T-47D breast
  GI50: 38.5 µM
  TGI: > 100 µM
BT-549 breast
  GI50: 35.9 µM
  TGI: > 100 µM
MDA-MB-231 breast
  GI50: > 100 µM
  TGI: > 100 µM
MDA-MB-435
  GI50: > 100 µM
  TGI: > 100 µM
SK-MEL-5 melanoma
  GI50: 49.1 µM
  TGI: > 100 µM
IGROV1 ovarian
  TGI: 22.9 µM
SNB-19 CNS
  GI50: 36.3 µM
  TGI: > 100 µM
CCRF-CEM leukemia
  GI50: 53.5 µM
  TGI: > 100 µM
UO-31 renal
  GI50: > 100 µM
  TGI: > 100 µM
HCT-116 colon
  GI50: 35.8 µM
  TGI: > 100 µM
A498 renal
  GI50: 24 µM
  TGI: 71.9 µM
HOP-62 NSCLC
  GI50: 44.6 µM
  TGI: > 100 µM
CAKI-1 renal
  GI50: 39.9 µM
  TGI: > 100 µM
OVCAR-3 ovarian
  GI50: 30.6 µM
  TGI: > 100 µM
M14 melanoma
  GI50: > 100 µM
  TGI: > 100 µM
HT29 colon
  GI50: 32.8 µM
  TGI: > 100 µM
UACC-62 melanoma
  GI50: > 100 µM
  TGI: > 100 µM
OVCAR-4 ovarian
  GI50: 37.1 µM
  TGI: > 100 µM
HCC-2998 colon
  GI50: 55.9 µM
  TGI: > 100 µM
UACC-257 melanoma
  GI50: 40.8 µM
  TGI: > 100 µM
K-562 leukemia
  GI50: 21 µM
  TGI: > 100 µM
HS 578T breast
  GI50: 19.8 µM
  TGI: 74 µM
SF-539 CNS
  GI50: 91.2 µM
  TGI: > 100 µM
